Test results reported in publication PMC12346692, “SUL-150 Limits Vascular Remodeling and Ventricular Failure in Pulmonary Arterial Hypertension” (International Journal of Molecular Sciences, 2025).
Where “and” joins values, the source holds several entries; their conditions need not be identical. Equal values may be shown once. Read-outs that look alike come from different tables or passages of the source. Marks after values point to notes of the source that are not given here.

Columns and labels:
[1] = SUL-150 levels in plasma, lung and right ventricle (LC-MS/MS); format: in vivo, rat; details: for concentration at 4 weeks / concentration at 28 days: rat
Protocol: (§1) The administration of vehicle and SUL-150 started 7 days post-monocrotaline injection and was performed by the i.p. implantation of osmotic minipumps (Alzet model #2004, Durect Corp., Cupertino, CA, USA) at the time of aortocaval shunt placement. The Lynch coil method was used to circumvent compatibility issues with the osmotic minipump reservoir as described previously. Vehicle (dimethyl sulfoxide (DMSO) or SUL-150 ((R)-(6-hydroxy-2,5,7,8-tetramethylchroman-2-yl)(piperazin-1-yl)methanone, 0.9 M in DMSO, Sulfateq BV, Groningen, The Netherlands) was administered at a flow rate of 0.25 µL·h^−1, accumulating to an approximate dose of 6 mg·kg^−1·day^−1 SUL-150 in a 300 g rat. Animals were weighed, watched for dyspnea, cyanosis, and oedema, and sacrificed preterm when a 15% weight loss or debilitating dyspnea occurred.
Measurement of SUL-150 levels in plasma and tissue homogenates was performed by liquid chromatography and mass spectrometry. Plasma or tissue homogenates were supplemented with acetonitrile and sonicated, followed by centrifugation at 14,000× g to liberate SUL-150 from the samples and pellet protein precipitates. Tissue samples were subjected to additional solid-phase extraction using an SPEStrata C-18 cartridge (100 mg, 55 µm, 70 Å, Phenomenex, Torrance, CA, USA), prepared with 1 mL methanol followed by 1 mL water. Analytes were washed by methanol (10%) and eluted in acetonitrile/methanol (3:7 v/v). Eluate was concentrated, and water (20%) was added. Analyte recovery was >95% for plasma samples and >70% for tissue. Liquid chromatography of the samples was performed on a 1260 Infinity HPLC device (Agilent Tech., Santa Clara, CA, USA) using a ZORBAX Eclipse AAA column (3.0 × 150 mm, particle size 3.5 µm) in a reversed-phase setup and a flow rate of 0.5 mL·min^−1 with gradient elution. Solvents consisted of methanol (6%)/acetonitrile (4%) acetate and methanol (54%)/acetonitrile (36%) in water with 0.1% ammonium for solvents A and B, respectively. MS/MS detection was performed on a QQQ 6460 mass spectrometer (Agilent Tech., Santa Clara, CA, USA). Detection was set for a quantifier ion (205.1, CE 25 V) and qualifier ion (190.1, CE 40 V). Gas temperature for MS was set to 300 °C and gas flow was set to 6 L·min^−1. Quantification of the samples was performed using an external standard for calibration. LOD and LOQ were 5 pg·mL^−1 and 17 pg·mL^−1, respectively.

α1-adrenoceptor = test system: α1-adrenoceptor; design: method as in PMID 30626882; details: no test in this paper; α1 antagonism attributed; cited from earlier work
PAH rats [2] = assay: In-life data (body weight, discomfort, mortality) during chronic SUL-150 administration; format: in vivo, rat; details: ~6 mg·kg^−1·day^−1 i.p. minipump, 28 days
Protocol: as §1
Three rats died during the study without a clear cause at necropsy and were excluded (sham control (n = 1) and vehicle-treated (n = 2) rats). At sacrifice, 7 rats were excluded from the study because of procedural motives: in two rats (vehicle (n = 1) and SUL-150-treated (n = 1) rats), adequate AC shunt could not be confirmed. In two other rats (both SUL-150-treated rats), the osmotic pumps were blocked by adipose deposits, limiting their function. Three rats died during cardiac function assessment (sham control (n = 2) and SUL-150 treated (n = 1) rats). Twenty rats were included in the study (sham control (n = 7), vehicle-treated (n = 7), and SUL-150-treated (n = 6) rats.

PAH rats [3] = assay: Histochemistry: pulmonary artery and vessel remodeling, cardiomyocyte hypertrophy, cardiac fibrosis; format: in vivo, rat; details: ~6 mg·kg^−1·day^−1 i.p. minipump, 28 days
Protocol: Cross-sectional cardiomyocyte area was determined for approximately 400 cardiomyocytes/sample (range 182–768) using Fiji 2.1.0/1.53c in binary mode with the following particle analyzer settings: circularity 0.25–1.00 and pixel area 300–1000 px^2.
Cardiac fibrosis was measured after picrosirius staining and counterstaining with Weigert’s hematoxylin (both Sigma-Aldrich, St. Louis, MO, USA) following the manufacturer’s instructions. Samples were imaged on a NanoZoomer digital slide scanner (Hammamatsu Photonics, Shizuoka, Japan) at 40× magnification. Interstitial fibrosis (i.e., non-perivascular fibrosis) was quantified using Aperio ImageScope (Leica Biosystems, Nussloch, Germany). Morphology of the intra-acinar pulmonary vessels was assessed after Verhoeff-Von Gieson staining (Sigma-Aldrich, St. Louis, MO, USA). Samples were imaged on a Leica DM2000 microscope at 63× magnification using Leica Image Acquisition software version 4.13 (Leica, Wetzlar, Germany). Pulmonary vessel remodeling was quantified as described previously.

[4] = test system: neonatal rat cardiomyocytes; assay: In vitro hypertrophy reporter assay in phenylephrine-treated cardiomyocytes; format: cell-based
Protocol: Cultures of neonatal rat cardiomyocytes were prepared from 1–3-day-old Wistar rats and adenovirally transformed with hypertrophy reporter construct as described elsewhere. Cardiomyocytes were pre-incubated with SUL-150 (3 × 10^−5 M) or vehicle for 30 min and subsequently stimulated with phenylephrine in the dose range of 10^−8 to 10^−4 M for 24 h. Cells were lysed in passive lysis buffer (Promega, Madison, WI, USA), and […] intensity of the lysate was recorded in an EnVision 2102 plate reader (Perkin Elmer, Waltham, MA, USA).

[5] = individual PAH rats at sacrifice, ~6 mg·kg^−1·day^−1 i.p. minipump
[6] = plasma, ip, 6 mg·kg^−1·day^−1, mean of PAH rats at sacrifice, ~6 mg·kg^−1·day^−1 i.p. minipump, read-out: mean concentration of SUL-150 in blood plasma

## Cc1c(C)c2c(c(C)c1O)CC[C@](C)(C(=O)N1CCNCC1)O2 [SUL-150, (R)-(6-hydroxy-2,5,7,8-tetramethylchroman-2-yl)(piperazin-1-yl)methanone]
[1]; [5]
  SUL-150 concentration, Lung Tissue: 35.56 pg/mg and 10.21 pg/mg and 14.26 pg/mg and 25.74 pg/mg and 26.09 pg/mg and 53.94 pg/mg
  SUL-150 concentration, Plasma: 93.16 ng/mL and 3.31 ng/mL and 18.36 ng/mL and 4.42 ng/mL and 18.81 ng/mL and 43.90 ng/mL
  SUL-150 concentration, Right Ventricle: 13.49 pg/mg and 29.91 pg/mg and 23.67 pg/mg and 16.80 pg/mg and 21.76 pg/mg and 143.68 pg/mg
[1]; lung, ip, 6 mg·kg^−1·day^−1, mean of PAH rats at sacrifice, ~6 mg·kg^−1·day^−1 i.p. minipump, read-out: mean concentration of SUL-150 in lung
  concentration at 4 weeks: 27.6 ± 15.8 ng/g
[1]; plasma, intraperitoneal, 6 mg·kg^−1·day^−1, range over PAH rats at sacrifice, read-out: plasma level of SUL-150, range
  concentration at 28 days: 3.3 to 93.2 ng/mL
[1]; [6]
  concentration at 4 weeks: 30.3 ± 34.1 ng/mL
  concentration at 28 days: 30.3 ng/mL
[1]; right ventricle, ip, 6 mg·kg^−1·day^−1, mean of PAH rats at sacrifice, ~6 mg·kg^−1·day^−1 i.p. minipump, read-out: mean concentration of SUL-150 in right ventricle
  concentration at 4 weeks: 41.5 ± 50.4 ng/g
α1-adrenoceptor
  pA2 as an α1-adrenoceptor antagonist: ≈ 5.4
PAH rats [2]
  Dyspnea frequency: 33.3 % of rats
  Edema frequency: 0 % of rats and 0 ^a,b % of rats
  End weight (day 32–33): 319.3 ± 12.0 ^a g
  Mortality (%): 0 (0%) ^a,b
  number of rats with dyspnea: 2 n
  survival rate: 100%
PAH rats [3]
  cardiomyocyte cross-sectional area (right ventricle): 246.1 ± 39.4 µm^2
  cross-sectional vascular area: 888.2 ± 146.7 µm^2
  interstitial fibrosis in the cardiac tissue: 9.3 % of tissue area
  intra-acinar pulmonary vessels, cross-sectional lumen area: 365.7 ± 101.1 µm^2
  intra-acinar vessel occlusion score: 39.0 ± 7.4%
  pulmonary artery wall thickness: 57.6 ± 13.0 µm
  wall–lumen ratio: 0.42 ± 0.12 µmwall·µmlumen^−1
PAH rats [3]; vessels with a luminal area < 40 µm^2
  percentage of non-perfusable vessels: 4.45 ± 2.62%
[4]; SUL-150 3 × 10^−5 M pre-incubated 30 min, phenylephrine 24 h
  Emax of phenylephrine in hypertrophy reporter with SUL-150 co-treatment: 2.36 RFU
[4]; SUL-150 3 × 10^−5 M versus vehicle
  reduction in phenylephrine efficacy in hypertrophy reporter: 40%
